Measured values: US10335380B2, “Compounds suitable for the treatment of myeloproliferative neoplasms as well as methods for the diagnosis/prognosis of myeloproliferative neoplasms” (CNIC Fundacion Centro Nacional De investigaciones …, priority 2013, dated 2019)

Assays:
[1] = test system: CD45+ haematopoietic cells from BM of Nes-gfp;Mx1-cre;JAK2-V617F mice and control littermates; assay: Colony-forming units in culture (CFU-C) with drug added in vitro; format: cell-based, mouse; conditions: scored after one week in culture
Protocol: Colony-forming units in culture (CFU-C) assay was performed. […] Colonies of more than 50 cells were scored after 7 days of incubation at 37° C., 5% CO2, 20% O2 in a water-jacketed incubator. For CFU-F assays, BM CD45− Ter119− cells were plated into 6-well dishes and cultured in maintenance medium (α-MEM, 15% FCS with antibiotics). After 10-12 days in culture, adherent cells were fixed with 100% methanol and stained with Giemsa stain (Sigma) to reveal fibroblastic clusters. Colonies with more than 50 cells were scored as CFU-F.

[2] = target: β1 receptors (Homo sapiens, UniProt P08588); conditions: read-out: Ki for β1 receptors; cited from earlier work
β1 receptors, sequence (P08588 whole entry): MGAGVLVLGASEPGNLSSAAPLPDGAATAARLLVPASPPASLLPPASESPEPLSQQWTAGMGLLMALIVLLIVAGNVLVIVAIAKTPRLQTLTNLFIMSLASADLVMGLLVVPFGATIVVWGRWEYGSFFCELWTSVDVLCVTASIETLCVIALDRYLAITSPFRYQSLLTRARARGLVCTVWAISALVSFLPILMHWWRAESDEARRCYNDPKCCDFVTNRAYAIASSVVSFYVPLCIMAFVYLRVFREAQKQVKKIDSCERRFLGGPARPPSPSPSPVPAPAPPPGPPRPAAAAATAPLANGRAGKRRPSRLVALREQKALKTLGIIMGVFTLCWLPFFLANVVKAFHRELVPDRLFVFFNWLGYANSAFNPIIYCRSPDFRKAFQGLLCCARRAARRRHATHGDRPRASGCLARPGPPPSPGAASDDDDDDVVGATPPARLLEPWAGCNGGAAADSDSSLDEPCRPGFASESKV

[3] = test system: HSCs and MPN-initiating cells; assay: Competitive repopulation assays using limiting cell dilutions; format: in vivo
Protocol: For quantification of HSC, BM cells from treated mice were used for competitive repopulation assays using limiting cell dilutions. Briefly, CD45.1+ competitor BM cells […] were transplanted into lethally irradiated CD45.2+ recipient mice, after mix with […] and 4×10^3 donor BM cells. Peripheral blood chimerism was assessed by flow cytometry every 2-4 weeks. Mice were sacrificed 16 weeks after the transplant and the BM LSK cell chimerism was assessed by flow cytometry. A minimum of 5% CD45.2+ chimerism in the LSK cell compartment was considered as positive in recipients of control BM cells. In recipients of mutant BM, mice were considered as positive (“leukaemic”) above 50% CD45.2+ chimerism. The software LCalc (StemCell Technologies) was used for quantification of HSCs and MPN-initiating cells in control and mutant donor BM, respectively.

[4] = test system: mice transplanted with MPN BM cells (JAK2-V617F); assay: In vivo pharmacological treatments of mice transplanted with MPN (Mx1-cre;JAK2-V617F) BM cells; set-up: species or system mouse
From the text: In Mx1-cre; JAK2-V617F double-transgenic mice, expression of the human JAK2-V617F mutation is driven by the endogenous Jak2 promoter and can be conditionally expressed in haematopoietic cells upon Myxovirus resistance-1 (Mx1)-driven Cre recombinase activation by polyinosine-polycytosine (plpC). PlpC-induced transgenic mice and wild-type mice transplanted with BM cells from these mice develop progressive symptoms of PV19,20.
(§1) Age-matched, female wild-type C57BL/6J or Nes-gfp mice were used as recipients in bone marrow (BM) transplantation assays and for in vivo pharmacological treatments. […] Vehicle (saline solution) daily injections were performed in the same way. Unless indicated, treatment was initiated 4 weeks posttransplant, when animals evidenced peripheral blood signs of MPN. Mice were randomly distributed prior to treatment initiation, and disease development was monitored over time in peripheral blood samples, using an automated blood counter. […] The neuroprotective drug 4-methylcatechol (10 μg kg-1, i.p.) was injected once daily. The JAK inhibitor INCB018424 (S-Ruxilitinib, Abmole Bioscience) was administered by oral gavage (30 mg kg-1, twice per day separated 10-12 hours) in 0.5% hydroxypropylmethylcellulose (Sigma) after solubilisation in DMSO. The IL-1 receptor antagonist (Kineret, Sobi, Stockholm, Sweden) was administered by subcutaneous osmotic pumps (Alzet) infusing a continuous dosing of 40 mg kg-1 per day. Mice were sacrificed at different time points and subjected to complete necropsy; BM and spleen were analysed by histology and flow cytometry; femora and skull were used for immunostainings, and haematopoietic and stromal cells were additionally used for functional assays ex vivo.
BM cell extraction, flow cytometry and fluorescence-activated cell sorting For haematopoietic cell recovery, bones were crushed in a mortar, filtered through a 40-μm mesh to obtain single cell suspensions, and depleted of red blood cells by lysis in 0.15 M NH4Cl for 10 min at 4° C. Spleen samples were homogenised and filtered prior to lysis; blood samples were directly lysed. Cells (1-2×10^6 cells per sample) were incubated with the appropriate dilution (2-5 μg ml-1) of fluorescent antibody conjugates and 4′,6-diamidino-2-phenylindole (DAPI) for dead cell exclusion, and analysed on LSRFortessa flow cytometer (BD Biosciences, Franklin Lakes, N.J.) equipped with FACSDiva Software (BD Biosciences). […] Biotinylated antibodies were detected with fluorochrome-conjugated streptavidin (BD Biosciences). Phenotypic populations of HSC were defined as long-term haematopoietic stem cells (HSCs) (lin− Sca1+c-kit+ (LSK) CD34− Flt3−), short-term HSCs (LSK CD34+ Flt3−) and multipotent progenitors (MPP) (LSK CD34+ Flt3+).
Cells were filtered through a 40-μm mesh and erythrocytes were lysed as previously described. The resulting bone marrow-enriched cell suspensions were pelleted, washed and resuspended in PBS buffer containing 2% foetal calf serum (FCS) for further analyses. […] BM stromal CD45− CD31− Ter119− cells were further purified according to GFP fluorescence using a FACS Aria cell sorter (BD Bioscience). For the determination of apoptotic cells, samples were washed with PBS after surface antibody staining and subsequently stained with Annexin V-Pacific Blue and SYTOX AADvanced (Invitrogen, Life Technologies, Paisley, UK). For functional assays, cells were enriched by immunomagnetic depletion using biotinylated CD45 and Ter119. For immunophenotypic characterisation, total BM samples were studied by flow cytometry using the following additional antibodies: CD63 (NVG-2), CD105 (MJ7/18), CD140a (APA5), Vcam, CD51 (RMV-7), all from Biolegend; and CD90.2 from BD Biosciences.
Immunofluorescence staining of cryostat sections was performed. For whole mount staining of the calvaria, all incubation times were extended. The antibodies used were TH (Rabbit pAb, Millipore) and GFAP (Rabbit pAb, Dako).

[5] = test system: Nes-creERT2;iDTA mice depleted in nestin+ cells; assay: BRL37344 treatment of Nes-creERT2;iDTA mice depleted in nestin+ cells, transplanted with MPN BM cells; format: in vivo, mouse; conditions: BRL37344 for 6 weeks
Protocol: as §1

[6] = target: β2 receptors (Homo sapiens, UniProt P07550); conditions: read-out: Ki for β2 receptors; cited from earlier work
β2 receptors, sequence (P07550 whole entry): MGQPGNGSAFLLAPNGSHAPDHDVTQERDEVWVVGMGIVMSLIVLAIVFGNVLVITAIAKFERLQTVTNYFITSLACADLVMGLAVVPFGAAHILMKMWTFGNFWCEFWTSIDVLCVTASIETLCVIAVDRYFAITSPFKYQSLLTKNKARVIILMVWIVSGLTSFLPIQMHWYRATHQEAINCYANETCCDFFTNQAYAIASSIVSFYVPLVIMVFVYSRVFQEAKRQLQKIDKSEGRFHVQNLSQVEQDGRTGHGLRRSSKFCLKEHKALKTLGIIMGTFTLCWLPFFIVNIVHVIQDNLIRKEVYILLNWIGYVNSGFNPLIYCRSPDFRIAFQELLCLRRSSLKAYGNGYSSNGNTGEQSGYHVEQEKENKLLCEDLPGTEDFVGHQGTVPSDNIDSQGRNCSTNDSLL

[7] = advanced MPN, BRL37344 started upon thrombocytosis
[8] = symptomatic MPN mice, chronic BRL37344 2 mg kg-1 i.p. twice a day

SMILES: C[C@H](Cc1ccc(OCC(=O)O)cc1)NC[C@H](O)c1cccc(Cl)c1 [BRL37344, [4-[(2R)-2-[[(2R)-2-(3-clorophenyl)-2-hydroxyethyl]amino]propyl]phenoxy]acetic acid]
- growth of cultured haematopoietic progenitors (CFU-C) [1]: neither 4-methylcatechol nor BRL37344 affected
- Ki [2]: 1750 nM
- reduction in leukemic stem cells (MPN-initiating cell frequency) ([3]; BM cells from BRL37344-treated versus vehicle-treated MPN mice, 16 weeks after transplantation): 4.5 fold
- normal HSC BM number ([3]; control mice treated with BRL37344 over 4 weeks, starting 11 weeks after the transplant, non-significant): does not change
- incipient MPN signs (haematological parameters) ([4]; 8 weeks after transplantation, treatment for the last 4 weeks): improved
- IL-1β in BM supernatant ([4]; BRL37344, 4 weeks, FIG. 4e): reduced
- BM Nes-GFP+ cell number ([4]; BRL37344, 8 weeks, FIG. 4f): restored
- Cxcl12 levels in BM ([4]; BRL37344, 16 weeks, FIG. 4g): increased
- mutant haematopoietic progenitors (LSK cells, LT- and ST-HSCs) ([4]; BRL37344 administered at thrombocytotic stage, FIG. 4k): efficiently decreased
- MPN progression ([4]; BRL37344 or Mirabegron 2 mg kg-1 i.p. twice a day): blocks
- neuroglial gene expression (Mbp, Mobp, Pleckhb1 mRNA) in BM Nes-GFP+ cells from MPN mice ([4]; BRL37344 over 8 weeks, starting 4 weeks after transplantation): do not express
- Schwann cell program activation in BM nestin+ cells ([4]; BRL37344 over 8 weeks, starting 4 weeks after transplantation, FIG. 11c): blocked
- BM Schwann cells (Gfap immunostaining) [4, 7]: rescued
- BM interleukin-1β [4, 7]: reduced
- erythrocytosis [4, 7]: reduced
- fibrosis and osteosclerosis [4, 7]: reduced
- neutrophilia [4, 7]: reduced
- thrombocytosis [4, 7]: reduced
- BM fibrosis: excessive bone and fibroblastic tissue (reticulin, Van Gieson) ([4]; chronic BRL37344 versus vehicle-injected mice with severe fibrosis): virtually devoid of excessive bone and fibroblastic tissue
- mutant haematopoietic progenitor expansion ([4]; early treatment, 4 weeks, BRL37344 2 mg kg-1 twice a day, 4-methylcatechol 10 μg kg-1 once daily): prevented
- mutant haematopoietic progenitors ([4]; long-term BRL37344 treatment, 16 weeks): efficiently decreased
- JAK2-V617F+ HSC expansion ([4]; long-term BRL37344 treatment, 16 weeks, 2 mg kg-1 twice a day i.p.): inhibits
- MPN-associated thrombocytosis [4, 8]: prevented
- red blood cell reduction [4, 8]: delayed
- MPN-associated neutrophilia ([4]; symptomatic MPN mice, treatment started 4 weeks after transplantation, BRL37344 2 mg kg-1 i.p. twice a day, 4-methylcatechol 10 μg kg-1 i.p. once daily): prevented
- therapeutic effect of BRL37344 after in vivo depletion of nestin+ cells (blood counts) ([5]; Nes-creERT2;iDTA versus control mice): reduces
- leukocytosis in mice depleted in nestin+ cells ([5]; started 2 weeks after transplantation combined with tamoxifen): not rescued
- Ki [6]: 1120 nM
